Laboratory results taken from patent US20230233567A1, “BELVARAFENIB FOR USE IN CANCER TREATMENT” (Hanmi Pharm. Co., Ltd., priority 2020, published 2023).
Read-outs that look alike come from different tables or passages of the source.

Assay: Phase I study plasma pharmacokinetics
Assay type: in vivo, human
Details: for AUC(0-inf) / AUC(0-t) / Cmax / AUC / Vd/F / Tmax: human, plasma, oral; for AUC: read-out: AUC24; for Vd/F: read-out: Vz/F; for Tmax: median, read-out: Tmax
Excerpt: The PK parameters of belvarafenib were estimated in 48 patients in the dose-escalation phase and 35 patients in the dose-expansion phase. In the tables: “AUClast” refers to the area under the plasma concentration-time curve from zero time until the last measurable concentration; “AUC0-∞” refers to area under the plasma concentration-time curve from zero time to infinity; “AUC24” refers to the area under the curve from T0 to T24; “Cmax” refers to the maximal concentration; “Tmax” refers to the time to reach Cmax; “T1/2β” refers to the terminal elimination half-life; “QD” refers to once a day; and “BID” refers to twice a day. […] Mean and coefficient of variation are presented except for Tmax where median and range are presented. One patient in the 200 QD dosing regimen who took concomitant rifampin was removed from the analysis because the AUC and Cmax of the patient were much lower than those of the others in the same cohort, which, without being bound to any particular theory, could have resulted from the drug-metabolizing enzyme induction by rifampin through which belvarafenib is biotransformed.

[1] = Day 1 first dose, 50 mg/day QD, n=3, mean
[2] = Day 1 first dose, 100 mg/day QD, n=3, mean
[3] = Day 1 first dose, 200 mg/day QD, n=6, mean
[4] = Day 1 first dose, 200 mg/day QD, n=7, mean
[5] = Day 1 first dose, 400 mg/day BID, n=11, mean
[6] = Day 1 first dose, 600 mg/day BID, n=7, mean
[7] = Day 1 first dose, 600 mg/day QD, n=6, mean
[8] = Day 1 first dose, 900 mg/day BID, n=8, mean
[9] = Day 1 first dose, 1300 mg/day BID, n=6, mean
[10] = Day 1 first dose, 1600 mg/day BID, n=6, mean
[11] = Multiple administrations Day 17, 50 mg/day QD, n=2, mean
[12] = Multiple administrations Day 22, 100 mg/day QD, n=3, mean
[13] = Multiple administrations Day 22, 200 mg/day QD, n=5, mean
[14] = Multiple administrations Day 22, 200 mg/day QD, n=6, mean
[15] = Multiple administrations Day 22, 400 mg/day BID, n=8, mean
[16] = 50 mg/day, Multiple administrations Day 17, 50 mg/day QD, n=2, mean
[17] = 100 mg/day, Multiple administrations Day 22, 100 mg/day QD, n=3, mean
[18] = 200 mg/day, Multiple administrations Day 22, 200 mg/day QD, n=5, mean
[19] = 200 mg/day, Multiple administrations Day 22, 200 mg/day QD, n=6, mean
[20] = 400 mg/day, Multiple administrations Day 22, 400 mg/day BID, n=8, mean
[21] = 600 mg/day, Multiple administrations Day 22, 600 mg/day BID, n=6, mean

Cc1ccc2c(Nc3cccc(Cl)c3F)nccc2c1NC(=O)c1csc2c(N)ncnc12 [Belvarafenib]
CL/F [1]: 2.5 L/h
T1/2β [1]: 51.6 h
CL/F [2]: 2.5 L/h
T1/2β [2]: 55.3 h
CL/F [3]: 7.3 L/h
T1/2β [3]: 57.7 h
CL/F [4]: 15.4 L/h
T1/2β [4]: 50.5 h
CL/F [5]: 7.8 L/h
T1/2β [5]: 70.7 h
CL/F [6]: 7.7 L/h
T1/2β [6]: 86.6 h
CL/F [7]: 9.9 L/h
T1/2β [7]: 58.9 h
CL/F [8]: 5.7 L/h
T1/2β [8]: 84.3 h
CL/F [9]: 9.0 L/h
T1/2β [9]: 77.4 h
CL/F [10]: 14.5 L/h
T1/2β [10]: 215.8 h
CL/F [11]: 0.6 L/h
T1/2β [11]: 70.7 h
CL/F [12]: 0.9 L/h
T1/2β [12]: 106.1 h
CL/F [13]: 1.3 L/h
T1/2β [13]: 69.8 h
CL/F [14]: 2.4 L/h
T1/2β [14]: 65.1 h
CL/F [15]: 3.3 L/h
T1/2β [15]: 41.2 h
T1/2β (Multiple administrations Day 22, 600 mg/day BID, n=6, mean): 52.3 h
CL/F (Multiple administrations Day 22, 600 mg/day BID, n=6, mean (CV)): 2.2 (63.3) L/h
T1/2β (Multiple administrations Day 22, 600 mg/day QD, n=6, mean): 97.7 h
CL/F (Multiple administrations Day 22, 600 mg/day QD, n=6, mean (CV)): 3.4 (81.8) L/h
T1/2β (Multiple administrations Day 22, 900 mg/day BID, n=7, mean): 32.3 h
CL/F (Multiple administrations Day 22, 900 mg/day BID, n=7, mean (CV)): 3.8 (50.7) L/h
T1/2β (Multiple administrations Day 22, 1300 mg/day BID, n=6, mean): 66.4 h
CL/F (Multiple administrations Day 22, 1300 mg/day BID, n=6, mean (CV)): 2.7 (54.7) L/h
T1/2β (Multiple administrations Day 22, 1600 mg/day BID, n=4, mean): 42.7 h
CL/F (Multiple administrations Day 22, 1600 mg/day BID, n=4, mean (CV)): 14.8 (61.2) L/h
mean plasma concentration versus dose (from 50 mg QD to 650 mg BID): linearity in a dose-proportional manner
AUC(0-inf) [16]: 88800 ng·h/mL
AUC(0-t) [16]: 18900 ng·h/mL
Cmax [16]: 1120 ng/mL
AUC [16]: 18900 ng·h/mL
Vd/F [16]: 57.6 L
Tmax (50 mg/day, Multiple administrations Day 17, 50 mg/day QD, n=2): 3 h
AUC(0-inf) [17]: 349000 ng·h/mL
AUC(0-t) [17]: 41900 ng·h/mL
Cmax [17]: 1990 ng/mL
AUC [17]: 42000 ng·h/mL
Vd/F [17]: 62.7 L
Tmax (100 mg/day, Multiple administrations Day 22, 100 mg/day QD, n=3): 5 h
AUC(0-inf) [18]: 239000 ng·h/mL
AUC(0-t) [18]: 48200 ng·h/mL
Cmax [18]: 2520 ng/mL
AUC [18]: 48200 ng·h/mL
Vd/F [18]: 116 L
Tmax (200 mg/day, Multiple administrations Day 22, 200 mg/day QD, n=5): 3.2 h
AUC(0-inf) [19]: 203000 ng·h/mL
AUC(0-t) [19]: 41600 ng·h/mL
Cmax [19]: 2210 ng/mL
AUC [19]: 41700 ng·h/mL
Vd/F [19]: 178 L
Tmax (200 mg/day, Multiple administrations Day 22, 200 mg/day QD, n=6): 3.1 h
AUC(0-inf) [20]: 207000 ng·h/mL
AUC(0-t) [20]: 67500 ng·h/mL
Cmax [20]: 3210 ng/mL
AUC [20]: 68900 ng·h/mL
Vd/F [20]: 157 L
Tmax (400 mg/day, Multiple administrations Day 22, 400 mg/day BID, n=8): 13.1 h
AUC(0-inf) [21]: 507000 ng·h/mL
AUC(0-t) [21]: 116000 ng·h/mL
Cmax [21]: 5700 ng/mL
AUC [21]: 120000 ng·h/mL
Vd/F [21]: 122 L
Tmax (600 mg/day, Multiple administrations Day 22, 600 mg/day BID, n=6): 3.4 h
